Values after ≈ are worked out from the molar mass of the structure shown.
Legend:
[1] = Stability in acidic and basic conditions (TLC); assay type: physicochemical; conditions: for Number of TLC spots: 1 = stable
Method: Compounds 9–12, 15, and 19 were also tested for their stability in acidic and basic conditions. This assay was carried out for 48 h and samples were taken at six-time intervals (10 min, 1 h, 2 h, 3 h, 24 h, 48 h). Stability of the compounds was determined using the TLC method. […] In basic conditions, only compounds 10 and 15 were stable for 24 h. […] Results with details, including time of degradation of products obtained, are presented in the Supplementary (Tables S19 and S20). […]
VI. Stability in different pH conditions
Stability of chosen compounds (9-12, 15, and 19) were determined using the TLC method. Assays were performed in acidic and basic conditions and were carried out for 48 h. Samples were taken at six-time intervals (10 min., 1 h, 2 h, 3 h, 24 h, 48 h). […]
of spots observed on TLC, where 1 indicate that compound is stable (only TLC spot for proper compound was observed). Higher values point out how many products of degradation was observed, which can be calculating by subtracting one from number of spots.
Table S19. Results of chosen compounds (9-12, 15, 19) stability in acidic conditions.
Compound Number of TLC spots in defined time
Table S20. Results of chosen compounds (9-12, 15, 19) stability in basic conditions.

K. aerogenes CM-64 = system: K. aerogenes CM-64; design: method as in earlier work; conditions: doxycycline, chloramphenicol, norfloxacin, already published, cited from earlier work
[2] = system: K. aerogenes Ea-294, Ea-308; design: method as in earlier work; conditions: doxycycline, chloramphenicol, norfloxacin, already published, cited from earlier work
K. aerogenes Ea-289 = system: K. aerogenes Ea-289; design: method as in earlier work; conditions: doxycycline, chloramphenicol, norfloxacin, already published, cited from earlier work
[3] = system: AcrAB-TolC efflux pump in K. aerogenes strain Ea-289; design: method as in PMID 30691112; conditions: compound 100 µM; previously described; cited from earlier work
S. aureus ATCC 25923 [4] = system: S. aureus ATCC 25923; design: method as in earlier work; conditions: published previously, cited from earlier work
S. aureus ATCC 25923 [5] = system: S. aureus ATCC 25923; design: method as in earlier work; conditions: unstarred value; published previously; cited from earlier work

| Compound | Number of TLC spots ([1]; acidic conditions, 10 min) | Number of TLC spots ([1]; acidic conditions, 1 h) | Number of TLC spots ([1]; acidic conditions, 2 h) | Number of TLC spots ([1]; acidic conditions, 3 h) | Number of TLC spots ([1]; acidic conditions, 24 h) | Number of TLC spots ([1]; acidic conditions, 48 h) | Number of TLC spots ([1]; basic conditions, 10 min) | Number of TLC spots ([1]; basic conditions, 1 h) | Number of TLC spots ([1]; basic conditions, 2 h) | Number of TLC spots ([1]; basic conditions, 3 h) | Number of TLC spots ([1]; basic conditions, 24 h) | Number of TLC spots ([1]; basic conditions, 48 h) | further results |
| --- | --- | --- | --- | --- | --- | --- | --- | --- | --- | --- | --- | --- | --- |
| NC1=N/C(=C\c2ccc(-c3ccccc3)cc2)C(=O)N1CCCN1CCOCC1 [Compound 15] | 2 | 2 | 2 | 2 | 2 | 2 | 1 | 1 | 1 | 1 | 1 | 2 | time stable ([1]; basic conditions): 24 h |
| NC1=N/C(=C\c2cccc(Oc3ccccc3)c2)C(=O)N1CCCN1CCOCC1 [Compound 16] |  |  |  |  |  |  |  |  |  |  |  |  | MIC reduction (K. aerogenes CM-64; erythromycin + compound): No effect; A (activity gain) (K. aerogenes CM-64; erythromycin): 1; MIC reduction ([2]; erythromycin + compound): No effect; A (activity gain) ([2]; erythromycin): 1; MIC reduction (K. aerogenes Ea-289; erythromycin + compound): No effect; A (activity gain) (K. aerogenes Ea-289; erythromycin): 1; Inhibition efficiency (IE) towards extrusion of 1,2'-dNA [3]: 61%; MIC reduction (S. aureus ATCC 25923 [4]; oxacillin alone to oxacillin + compound): No effect; A (activity gain) (S. aureus ATCC 25923 [4]; oxacillin): 1; MIC value (S. aureus ATCC 25923 [5]): 125 µM (≈ 50.8 µg/mL) |
| NC1=N/C(=C\c2ccc3c(c2)Cc2ccccc2-3)C(=O)N1CCCN1CCOCC1 [Compound 19] | 1 | 1 | 1 | 2 | 2 | 3 | 4 | 4 | 4 | 4 | 4 | 4 |  |
